Measured values as given in patent publication US20020115661A1, “Method for treating chronic obstructive pulmonary disease” (priority 2000, published 2002).

Key:
human ETA receptors = molecular target: T1, human ETA receptors (Homo sapiens, UniProt P25101); assay: [125I]ET-1 binding to recombinant human ETA receptors (Ltk- cell membranes); settings: for IC50: Table 1 comparison with known endothelin antagonists, read-out: Receptor Inhibition, Human ETA; for ETB/ETA selectivity ratio: human ETB / human ETA receptor inhibition
T1 construct: expressed in transfected cells; host or cells: Ltk- cells (mouse fibroblast, thymidine kinase deficient)
T1 sequence (P25101 21-427): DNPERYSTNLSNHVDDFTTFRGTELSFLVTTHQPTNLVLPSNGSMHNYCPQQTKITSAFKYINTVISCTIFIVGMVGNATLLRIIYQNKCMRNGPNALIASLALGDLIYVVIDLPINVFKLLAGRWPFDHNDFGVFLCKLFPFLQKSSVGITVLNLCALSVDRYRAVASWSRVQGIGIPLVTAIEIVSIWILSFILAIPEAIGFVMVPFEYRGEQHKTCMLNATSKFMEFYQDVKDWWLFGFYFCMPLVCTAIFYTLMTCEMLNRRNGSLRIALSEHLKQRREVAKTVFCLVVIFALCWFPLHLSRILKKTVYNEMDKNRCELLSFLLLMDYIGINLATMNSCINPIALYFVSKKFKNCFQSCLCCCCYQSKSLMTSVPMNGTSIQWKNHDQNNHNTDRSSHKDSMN

human ETB receptors = molecular target: T2, human ETB receptors (Homo sapiens, UniProt P24530); assay: [125I]ET-3 binding to recombinant human ETB receptors (CHO cell membranes); settings: Table 1 comparison with known endothelin antagonists; read-out: Receptor Inhibition, Human ETB
T2 construct: expressed in transfected cells; host or cells: CHO cells
T2 sequence (P24530 27-442): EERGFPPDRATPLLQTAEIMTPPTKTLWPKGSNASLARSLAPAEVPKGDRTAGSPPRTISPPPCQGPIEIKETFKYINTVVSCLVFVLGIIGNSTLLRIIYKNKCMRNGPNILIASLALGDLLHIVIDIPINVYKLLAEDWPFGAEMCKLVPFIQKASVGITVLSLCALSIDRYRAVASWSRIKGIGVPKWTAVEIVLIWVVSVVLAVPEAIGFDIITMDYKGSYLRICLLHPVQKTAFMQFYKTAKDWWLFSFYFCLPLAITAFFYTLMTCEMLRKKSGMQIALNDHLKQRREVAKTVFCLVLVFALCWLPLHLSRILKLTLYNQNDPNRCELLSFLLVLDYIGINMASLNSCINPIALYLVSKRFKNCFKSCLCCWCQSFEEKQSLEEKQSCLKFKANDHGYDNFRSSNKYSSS

clinical = settings: human, plasma, oral, 2 mg

| SMILES | IC50 (human ETA receptors) [nM] | ETB/ETA selectivity ratio (human ETA receptors) | IC50 (human ETB receptors) [nM] | AUC(0-t) (clinical) [ng·h/mL] | Cmax (clinical) [ng/mL] |
| --- | --- | --- | --- | --- | --- |
| COc1cc(OC)nc(O[C@H](C(=O)O)C(OC)(c2ccccc2)c2ccccc2)n1 [Darusentan] | 1.4 | 131 | 184 | – | – |
| CCCOc1ccc2c(c1)[C@@H](c1ccc(OC)cc1OCCO)[C@H](C(=O)O)[C@H]2c1ccc2c(c1)OCO2 [Enrasentan] | 0.1 | 1110 | 111 | – | – |
| Cc1ncc2n1-c1ccc(Cl)cc1C(c1ccccc1F)=NC2 [midazolam] | – | – | – | 15.2 | 7.65 |
